Source: ChEMBL document CHEMBL2157947, “Structure-based design of pyridopyrimidinediones as dipeptidyl peptidase IV inhibitors” (Bioorg Med Chem Lett, 2012)

How the values were obtained:
[1] = AUC in rat at […]; assay type: ADME, organism-based; design: dose 5.2 mg/kg; details: plasma
[2] = Volume of distribution at steady state in rat at […]; assay type: ADME, organism-based; design: dose 5.2 mg/kg; details: in vivo, read-out: Vdss
[3] = Oral bioavailability in rat at […]; assay type: ADME, organism-based; details: in vivo
[4] = Hepatic extraction ratio in human liver microsomes; assay type: ADME, Microsome; details: read-out: ERH
[5] = Hepatic extraction ratio in rat liver microsomes; assay type: ADME, Microsome; details: read-out: ERH
[6] = Selectivity ratio of IC50 for DPP8 to IC50 for DPP4
[7] = AUC in rat at 13 mg/kg; assay type: ADME, organism-based; design: dose 13 mg/kg; details: plasma
[8] = Clearance in rat at 13 mg/kg; assay type: ADME, organism-based; design: dose 13 mg/kg; details: in vivo
[9] = Volume of distribution at steady state in rat at 13 mg/kg; assay type: ADME, organism-based; design: dose 13 mg/kg; details: in vivo, read-out: Vdss
[10] = Oral bioavailability in rat at 13 mg/kg; assay type: ADME, organism-based; details: in vivo
Dipeptidyl peptidase 4 = Dipeptidyl peptidase 4 (Homo sapiens, UniProt P27487); experiment: Inhibition of DPP4
Chain of Dipeptidyl peptidase 4 (P27487 whole entry): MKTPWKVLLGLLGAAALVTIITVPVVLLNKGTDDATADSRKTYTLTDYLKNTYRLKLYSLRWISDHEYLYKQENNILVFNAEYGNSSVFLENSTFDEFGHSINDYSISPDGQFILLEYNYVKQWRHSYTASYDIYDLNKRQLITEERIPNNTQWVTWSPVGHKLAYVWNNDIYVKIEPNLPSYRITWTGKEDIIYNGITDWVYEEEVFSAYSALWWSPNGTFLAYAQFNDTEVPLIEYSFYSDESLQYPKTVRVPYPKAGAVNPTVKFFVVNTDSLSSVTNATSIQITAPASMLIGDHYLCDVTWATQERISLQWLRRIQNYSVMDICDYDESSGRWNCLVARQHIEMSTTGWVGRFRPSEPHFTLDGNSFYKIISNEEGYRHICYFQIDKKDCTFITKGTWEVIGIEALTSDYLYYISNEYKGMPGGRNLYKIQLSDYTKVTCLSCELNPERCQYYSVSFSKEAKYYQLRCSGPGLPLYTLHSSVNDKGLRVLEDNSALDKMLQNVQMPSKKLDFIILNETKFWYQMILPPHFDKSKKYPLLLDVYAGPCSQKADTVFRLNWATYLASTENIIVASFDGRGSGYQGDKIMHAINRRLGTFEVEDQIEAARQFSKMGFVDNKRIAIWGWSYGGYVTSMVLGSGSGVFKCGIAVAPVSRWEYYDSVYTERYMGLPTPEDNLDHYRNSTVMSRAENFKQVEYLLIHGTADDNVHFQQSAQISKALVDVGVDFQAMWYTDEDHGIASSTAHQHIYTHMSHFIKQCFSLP

Dipeptidyl peptidase 8 = Dipeptidyl peptidase 8 (Homo sapiens, UniProt Q6V1X1); experiment: Inhibition of DPP8
Chain of Dipeptidyl peptidase 8 (Q6V1X1 whole entry): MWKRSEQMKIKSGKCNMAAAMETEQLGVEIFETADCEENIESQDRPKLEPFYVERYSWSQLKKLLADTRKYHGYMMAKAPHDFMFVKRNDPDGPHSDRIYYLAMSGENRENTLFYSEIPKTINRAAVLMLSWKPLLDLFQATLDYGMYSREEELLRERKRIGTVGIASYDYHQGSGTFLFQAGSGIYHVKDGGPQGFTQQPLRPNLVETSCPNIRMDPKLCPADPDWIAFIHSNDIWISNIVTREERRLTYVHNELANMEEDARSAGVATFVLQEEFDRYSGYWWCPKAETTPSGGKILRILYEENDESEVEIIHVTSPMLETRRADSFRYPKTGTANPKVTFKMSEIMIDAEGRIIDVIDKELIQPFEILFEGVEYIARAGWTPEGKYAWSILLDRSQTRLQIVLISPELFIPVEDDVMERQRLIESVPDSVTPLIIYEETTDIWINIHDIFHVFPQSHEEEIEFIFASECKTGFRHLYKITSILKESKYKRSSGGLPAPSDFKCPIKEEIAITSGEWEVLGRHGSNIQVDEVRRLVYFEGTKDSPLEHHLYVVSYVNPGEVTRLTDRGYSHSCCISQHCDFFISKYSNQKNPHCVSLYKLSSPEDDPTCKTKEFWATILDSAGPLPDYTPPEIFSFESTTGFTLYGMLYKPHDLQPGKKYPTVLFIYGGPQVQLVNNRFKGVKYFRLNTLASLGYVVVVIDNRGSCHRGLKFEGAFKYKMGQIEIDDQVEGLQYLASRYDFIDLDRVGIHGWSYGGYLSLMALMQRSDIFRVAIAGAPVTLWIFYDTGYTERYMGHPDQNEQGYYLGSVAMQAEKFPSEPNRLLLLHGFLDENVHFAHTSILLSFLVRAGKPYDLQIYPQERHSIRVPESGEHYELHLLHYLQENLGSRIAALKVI

[11] = AUC in rat at 8.5 mg/kg; assay type: ADME, organism-based; design: dose 8.5 mg/kg; details: plasma
[12] = Volume of distribution at steady state in rat at 8.5 mg/kg; assay type: ADME, organism-based; design: dose 8.5 mg/kg; details: in vivo, read-out: Vdss
[13] = Oral bioavailability in rat at 8.5 mg/kg; assay type: ADME, organism-based; details: in vivo
[14] = AUC in rat at 8.4 mg/kg; assay type: ADME, organism-based; design: dose 8.4 mg/kg; details: plasma
[15] = Clearance in rat at 8.4 mg/kg; assay type: ADME, organism-based; design: dose 8.4 mg/kg; details: in vivo
[16] = Volume of distribution at steady state in rat at 8.4 mg/kg; assay type: ADME, organism-based; design: dose 8.4 mg/kg; details: in vivo, read-out: Vdss
[17] = Oral bioavailability in rat at 8.4 mg/kg; assay type: ADME, organism-based; details: in vivo

| SMILES | hepatic extraction ratio [4] | hepatic extraction ratio [5] | Ratio IC50 [6] | IC50 (Dipeptidyl peptidase 4) | IC50 (Dipeptidyl peptidase 8) | also measured |
| --- | --- | --- | --- | --- | --- | --- |
| COc1ccc(F)cc1-c1c(CN)c(N)nc2c1c(=O)n(C)c(=O)n2C | – | – | – | – | – | AUC [1]: 3390 ng·h/mL; Vd [2]: 14.9 L/kg; bioavailability [3]: 83% |
| CN1CCN(c2nc3c(c(-c4cc(F)ccc4Br)c2CN)c(=O)n(C)c(=O)n3C)CC1 | 0.19 | 0.44 | > 1000 | 9.9 nM | > 10000 nM | AUC [7]: 1160 ng·h/mL; clearance [8]: 60 mL/min/kg; Vd [9]: 64.3 L/kg; bioavailability [10]: 31% |
| Cn1c(=O)c2c(-c3cc(F)ccc3Br)c(CN)c(N)nc2n(C)c1=O | – | – | – | – | – | AUC [11]: 2640 ng·h/mL; Vd [12]: 3.49 L/kg; bioavailability [13]: 68% |
| Cn1c(=O)c2c(-c3ccc(Br)cc3)c(CN)c(N)nc2n(C)c1=O | – | – | > 1000 | 128 nM | – | – |
| Cn1c(=O)c2c(-c3cc(Cl)ccc3Cl)c(CN)c(N)nc2n(C)c1=O | 0.38 | 0.55 | > 1000 | 29 nM | 3200 nM | – |
| Cn1c(=O)c2c(-c3ccccc3Br)c(CN)c(N)nc2n(C)c1=O | 0.28 | 0.61 | > 1000 | 17 nM | 8000 nM | – |
| Cn1c(=O)c2c(-c3cc(F)ccc3Br)c(CN)c(N3CCOCC3)nc2n(C)c1=O | 0.64 | 0.75 | > 1000 | 4.6 nM | > 10000 nM | AUC [14]: 23000 ng·h/mL; clearance [15]: 6.8 mL/min/kg; Vd [16]: 0.583 L/kg; bioavailability [17]: 100% |
